Results as given in ChEMBL document CHEMBL1201862, “PubChem BioAssay data set” (2004).
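Cultured in 96-well plates, cells were exposed to test compound for 48 hours across five concentrations. Abbreviation: GI50, concentration required for 50% inhibition of growth.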 Calls of active or inactive are those of the source. No stated cut-off is given here; in the data, active = GI50 up to about 1.1 µM and inactive = higher.

Legend:
Test in all cases: DTP human tumour cell line panel, 48 h
M19-MEL = test system: M19-MEL
SK-OV-3 = test system: SK-OV-3
UACC-62 = test system: UACC-62
UACC-257 = test system: UACC-257
OVCAR-8 = test system: OVCAR-8
HT-29 = test system: HT-29
TK-10 = test system: TK-10
SF-295 = test system: SF-295
NCI-H460 = test system: NCI-H460
ACHN = test system: ACHN
SNB-75 = test system: SNB-75
HOP-92 = test system: HOP-92
HCT-116 = test system: HCT-116
U-251 = test system: U-251
CCRF-CEM = test system: CCRF-CEM
SNB-78 = test system: SNB-78
MOLT-4 = test system: MOLT-4
SK-MEL-28 = test system: SK-MEL-28
K562 = test system: K562
SF-539 = test system: SF-539
DMS-114 = test system: DMS-114
HCT-15 = test system: HCT-15
CAKI-1 = test system: CAKI-1
COLO 205 = test system: COLO 205
SW-620 = test system: SW-620
SF-268 = test system: SF-268
A549 = test system: A549
KM12 = test system: KM12
UO-31 = test system: UO-31
RPMI-8226 = test system: RPMI-8226
EKVX = test system: EKVX
OVCAR-4 = test system: OVCAR-4
NCI-H522 = test system: NCI-H522
SK-MEL-5 = test system: SK-MEL-5
DMS-273 = test system: DMS-273
RXF 393 = test system: RXF 393
HOP-62 = test system: HOP-62
LXFL 529 = test system: LXFL 529
LOX IMVI = test system: LOX IMVI
786-0 = test system: 786-0
A498 = test system: A498
OVCAR-3 = test system: OVCAR-3
HL-60 = test system: HL-60
SK-MEL-2 = test system: SK-MEL-2
M14 = test system: M14
SNB-19 = test system: SNB-19
SR = test system: SR
HCC 2998 = test system: HCC 2998
SN12C = test system: SN12C
Malme-3M = test system: Malme-3M
IGROV-1 = test system: IGROV-1
NCI-H23 = test system: NCI-H23
HOP-18 = test system: HOP-18
OVCAR-5 = test system: OVCAR-5
NCI-H226 = test system: NCI-H226
DLD-1 = test system: DLD-1
KM-20L2 = test system: KM-20L2

With `Cc1c(N2CCOCC2)nc2ccc(Cl)cc2c1-c1ccccc1` the GI50 (M19-MEL) was 85.7 µM (inactive), the GI50 (SK-OV-3) was > 100 µM (inactive) and the GI50 (UACC-62) was > 100 µM (inactive). For the same molecule, the GI50 (UACC-257) was > 100 µM (inactive), the GI50 (OVCAR-8) was > 100 µM (inactive) and the GI50 (HT-29) was 57.1 µM (inactive). For the same molecule, the GI50 (TK-10) was > 100 µM (inactive), the GI50 (SF-295) was > 100 µM (inactive) and the GI50 (NCI-H460) was 58.3 µM (inactive). For the same molecule, the GI50 (ACHN) was 69 µM (inactive), the GI50 (SNB-75) was 31.4 µM (inactive) and the GI50 (HOP-92) was 42.7 µM (inactive). The GI50 (HCT-116) was 56.9 µM (inactive), the GI50 (U-251) was 89.9 µM (inactive) and the GI50 (CCRF-CEM) was 26.7 µM (inactive). The GI50 (SNB-78) was > 100 µM (inactive), the GI50 (MOLT-4) was 21.8 µM (inactive) and the GI50 (SK-MEL-28) was > 100 µM (inactive). The GI50 (K562) was 31.6 µM (inactive), the GI50 (SF-539) was 61.9 µM (inactive) and the GI50 (DMS-114) was 70.1 µM (inactive). The GI50 (HCT-15) was 42.6 µM, the GI50 (CAKI-1) was 76.4 µM (inactive) and the GI50 (COLO 205) was > 100 µM (inactive). For the same molecule, the GI50 (SW-620) was 66.2 µM (inactive), the GI50 (SF-268) was 80.2 µM (inactive) and the GI50 (A549) was 43.8 µM (inactive). For the same molecule, the GI50 (KM12) was 87.9 µM (inactive), the GI50 (UO-31) was > 100 µM (inactive) and the GI50 (RPMI-8226) was 46.9 µM (inactive). For the same molecule, the GI50 (EKVX) was 91.8 µM (inactive), the GI50 (OVCAR-4) was 50.7 µM (inactive) and the GI50 (NCI-H522) was 30.8 µM (inactive). For the same molecule, the GI50 (SK-MEL-5) was 21 µM (inactive), the GI50 (DMS-273) was 59.8 µM (inactive) and the GI50 (RXF 393) was 62.2 µM (inactive). For the same molecule, the GI50 (HOP-62) was > 100 µM (inactive), the GI50 (LXFL 529) was 61.2 µM (inactive) and the GI50 (LOX IMVI) was 49.4 µM (inactive). For the same molecule, the GI50 (786-0) was 95.9 µM (inactive), the GI50 (A498) was > 100 µM (inactive) and the GI50 (OVCAR-3) was 64.7 µM (inactive). The GI50 (HL-60) was 34 µM (inactive), the GI50 (SK-MEL-2) was > 100 µM (inactive) and the GI50 (M14) was > 100 µM (inactive). The GI50 (SNB-19) was > 100 µM (inactive), the GI50 (SR) was 34.4 µM (inactive) and the GI50 (HCC 2998) was 40.9 µM (inactive). The GI50 (SN12C) was 47.8 µM (inactive), the GI50 (Malme-3M) was 60.5 µM (inactive) and the GI50 (IGROV-1) was > 100 µM (inactive). The GI50 (NCI-H23) was 69.7 µM (inactive).
In the case of `OC1CC(O)O[C@H](c2ccccc2)C1` (some centres undefined), the GI50 (M19-MEL) is reported as > 100 µM (inactive), the GI50 (UACC-62) is reported as > 100 µM (inactive) and the GI50 (UACC-257) is reported as > 100 µM (inactive). The GI50 (OVCAR-8) was 85.3 µM (inactive), the GI50 (HT-29) was > 100 µM (inactive) and the GI50 (TK-10) was > 100 µM (inactive). The GI50 (HOP-18) was > 100 µM (inactive), the GI50 (SF-295) was > 100 µM (inactive) and the GI50 (NCI-H460) was > 100 µM (inactive). The GI50 (ACHN) was > 100 µM (inactive), the GI50 (SNB-75) was > 100 µM (inactive) and the GI50 (HOP-92) was > 100 µM (inactive). For the same molecule, the GI50 (HCT-116) was > 100 µM (inactive), the GI50 (OVCAR-5) was > 100 µM (inactive) and the GI50 (CCRF-CEM) was > 100 µM (inactive). For the same molecule, the GI50 (SNB-78) was > 100 µM (inactive), the GI50 (MOLT-4) was > 100 µM (inactive) and the GI50 (SK-MEL-28) was > 100 µM (inactive). For the same molecule, the GI50 (K562) was > 100 µM (inactive), the GI50 (SF-539) was > 100 µM (inactive) and the GI50 (HCT-15) was greater than 100 µM. The GI50 (CAKI-1) was > 100 µM (inactive), the GI50 (COLO 205) was > 100 µM (inactive) and the GI50 (SW-620) was > 100 µM (inactive). The GI50 (SF-268) was > 100 µM (inactive), the GI50 (A549) was > 100 µM (inactive) and the GI50 (KM12) was > 100 µM (inactive). The GI50 (UO-31) was > 100 µM (inactive), the GI50 (NCI-H226) was > 100 µM (inactive) and the GI50 (RPMI-8226) was > 100 µM (inactive). The GI50 (EKVX) was > 100 µM (inactive), the GI50 (OVCAR-4) was > 100 µM (inactive) and the GI50 (SK-MEL-5) was > 100 µM (inactive). The GI50 (DMS-273) was > 100 µM (inactive), the GI50 (RXF 393) was > 100 µM (inactive) and the GI50 (HOP-62) was > 100 µM (inactive). The GI50 (LXFL 529) was > 100 µM (inactive), the GI50 (LOX IMVI) was > 100 µM (inactive) and the GI50 (DLD-1) was > 100 µM (inactive). For the same molecule, the GI50 (786-0) was > 100 µM (inactive), the GI50 (A498) was > 100 µM (inactive) and the GI50 (OVCAR-3) was > 100 µM (inactive). For the same molecule, the GI50 (HL-60) was > 100 µM (inactive), the GI50 (M14) was > 100 µM (inactive) and the GI50 (SNB-19) was > 100 µM (inactive). For the same molecule, the GI50 (SR) was > 100 µM (inactive), the GI50 (HCC 2998) was > 100 µM (inactive) and the GI50 (SN12C) was > 100 µM (inactive). For the same molecule, the GI50 (Malme-3M) was > 100 µM (inactive), the GI50 (IGROV-1) was > 100 µM (inactive) and the GI50 (NCI-H23) was > 100 µM (inactive). The GI50 (KM-20L2) was > 100 µM (inactive).
